This note sets out measurements from patent US20240182531A1, “KV1.3 Blockers” (priority 2021, published 2024).

For one series, the target named is T1, human Kv1.2 (Homo sapiens, UniProt P16389).
T1 construct: expressed in transfected cells; host or cells: CHO
The experiment in a line: cell-based. The following applies: for Selectivity ratio Kv1.2/Kv1.3: ratio of patch clamp IC50 values. For orientation: In patch-clamp work, channel activity is measured electrically.

For series [1], the target named is T2, human Kv1.3 voltage-gated K+ channel (Homo sapiens, UniProt P22001).
T2 construct: host or cells: CHO-DUKX
T2 sequence (P22001 whole entry): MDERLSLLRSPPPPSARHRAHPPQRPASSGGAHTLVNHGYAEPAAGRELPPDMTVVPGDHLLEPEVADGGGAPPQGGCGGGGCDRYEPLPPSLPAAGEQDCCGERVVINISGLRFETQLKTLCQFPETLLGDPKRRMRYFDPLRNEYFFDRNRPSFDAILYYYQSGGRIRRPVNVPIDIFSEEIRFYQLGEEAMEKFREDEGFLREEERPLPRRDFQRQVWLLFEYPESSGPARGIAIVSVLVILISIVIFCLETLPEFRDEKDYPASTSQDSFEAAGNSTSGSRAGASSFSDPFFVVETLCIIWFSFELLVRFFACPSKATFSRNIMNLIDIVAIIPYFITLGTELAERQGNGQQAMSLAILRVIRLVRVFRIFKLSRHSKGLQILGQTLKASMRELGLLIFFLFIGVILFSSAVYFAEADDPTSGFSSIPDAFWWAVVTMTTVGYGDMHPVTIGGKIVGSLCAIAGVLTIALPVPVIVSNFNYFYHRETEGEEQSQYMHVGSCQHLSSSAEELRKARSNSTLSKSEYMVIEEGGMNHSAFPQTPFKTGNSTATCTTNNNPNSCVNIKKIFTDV
The experiment in a line: Kv1.3 blocker activity in FLIPR thallium assay. Format: cell-based. A digest of the protocol: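 CHO-DUKX cells stably expressing Kv1.3 were pre-incubated with compound for 30 min at 37° C in buffer with 0.02% w/v casein. Depolarization used final stimulus buffer with 5 mM K2SO4 and 1 mM Tl2SO4. Thallium-flux fluorescence was read at maximum response at 50 s, 37° C, and IC50 derived.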

Series [2] is described as follows: Pharmacokinetic characterisation after single s.c. injection in Sprague Dawley rats. The following applies: male, rat, plasma, sc, 100 nmol/kg. As for the experimental part: Sprague Dawley (males with a body weight of approximately 250-350 g) were given a single subcutaneous (s.c.) injection of each peptide to be tested.
Following s.c. administration of the selected compounds (dose 100 nmol/kg, dosing volume either 2 mL/kg), blood samples were drawn at 5 min, 15 min, 30 min, 60 min, 2 h, 3 h, 4 h, 6 h, 8 h post-dose. At each sampling time point, samples from the rats were drawn by sublingual bleeding. After last sampling the rats were sacrificed by O2/CO2 anaesthesia. The dosing vehicle was 10 mM phosphate, 0.8% NaCl, 0.05% Polysorbate 20 (pH 6.0).
Plasma samples were analyzed after solid phase extraction (SPE) by liquid chromatography mass spectrometry (LC-MS/MS). Mean plasma concentrations were used for calculation of the pharmacokinetic parameters using the non-compartmental approach in Phoenix WinNonlin 6.4 or a later version. Plasma terminal elimination half-life (T½) was determined as In(2)/λz where λz is the magnitude of the slope of the log linear regression of the log concentration versus time profile during the terminal phase. AUCinf is the area under the plasma concentration—time curve extrapolated to infinity (AUCinf=AUClast+Clast/λz, where Clast is the last observed plasma concentration). Cmax is the maximum observed concentration, occurring at Tmax.

In another series the target is T3, human Kv1.6 (Homo sapiens, UniProt P17658).
T3 construct: expressed in transfected cells; host or cells: CHO
T3 sequence (P17658 whole entry): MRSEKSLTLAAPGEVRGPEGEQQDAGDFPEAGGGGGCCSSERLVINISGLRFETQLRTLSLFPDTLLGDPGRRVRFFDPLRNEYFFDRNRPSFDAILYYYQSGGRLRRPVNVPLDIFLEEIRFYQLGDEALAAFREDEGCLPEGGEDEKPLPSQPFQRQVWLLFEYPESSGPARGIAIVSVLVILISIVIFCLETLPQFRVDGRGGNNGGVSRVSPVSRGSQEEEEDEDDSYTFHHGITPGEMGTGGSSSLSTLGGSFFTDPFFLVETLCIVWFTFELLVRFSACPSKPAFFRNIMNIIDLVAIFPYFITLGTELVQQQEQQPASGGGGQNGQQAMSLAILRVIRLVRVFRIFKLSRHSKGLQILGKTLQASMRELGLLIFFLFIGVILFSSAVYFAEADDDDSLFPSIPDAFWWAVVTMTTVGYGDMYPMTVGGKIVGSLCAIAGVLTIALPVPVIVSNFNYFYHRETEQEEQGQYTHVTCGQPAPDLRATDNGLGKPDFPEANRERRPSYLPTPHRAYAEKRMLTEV
Description: cell-based. The settings on record: for Selectivity ratio Kv1.6/Kv1.3: ratio of patch clamp IC50 values.

A further series deals with T4, human Kv1.1 (Homo sapiens, UniProt Q09470).
T4 construct: expressed in transfected cells; host or cells: CHO
T4 sequence (Q09470 whole entry): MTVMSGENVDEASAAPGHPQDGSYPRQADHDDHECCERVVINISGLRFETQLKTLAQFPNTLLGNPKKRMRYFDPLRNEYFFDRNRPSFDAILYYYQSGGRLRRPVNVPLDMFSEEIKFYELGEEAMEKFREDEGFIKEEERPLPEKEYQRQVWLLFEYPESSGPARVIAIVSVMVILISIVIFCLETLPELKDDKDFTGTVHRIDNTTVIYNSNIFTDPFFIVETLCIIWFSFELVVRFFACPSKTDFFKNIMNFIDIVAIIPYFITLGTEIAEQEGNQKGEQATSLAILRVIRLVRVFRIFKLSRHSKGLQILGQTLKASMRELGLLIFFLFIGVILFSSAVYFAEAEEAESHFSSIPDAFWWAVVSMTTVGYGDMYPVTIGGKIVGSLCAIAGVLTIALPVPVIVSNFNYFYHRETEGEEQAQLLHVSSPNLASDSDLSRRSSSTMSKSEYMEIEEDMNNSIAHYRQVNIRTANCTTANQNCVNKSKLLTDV
Description: cell-based. The following applies: for Selectivity ratio Kv1.1/Kv1.3: ratio of patch clamp IC50 values.

Another series addresses T5, human Kv1.3 (Homo sapiens, UniProt P22001).
T5 construct: expressed in transfected cells; host or cells: CHO
The experiment in a line: cell-based. The settings on record: CHO cells, QPatch whole-cell; read-out: Potency IC50 Kv1.3.

Series [3] is described as follows: Pharmacokinetic characterisation according to example 6 of PCT/EP2020/076187. The settings on record: in vivo; dose 70 nmol/kg. As for the experimental part: The pharmacokinetic characterization of compound 14 were performed according to the method described in example 6 of international patent application PCT/EP2020/076187.
In a further series the target is Rat whole blood (Rattus norvegicus, UniProt P15384). Format: cell-based. The settings on record: IL-17A release, thapsigargin, 24 Hr, at least 2 replicates.
Sequence of Rat whole blood (P15384 whole entry): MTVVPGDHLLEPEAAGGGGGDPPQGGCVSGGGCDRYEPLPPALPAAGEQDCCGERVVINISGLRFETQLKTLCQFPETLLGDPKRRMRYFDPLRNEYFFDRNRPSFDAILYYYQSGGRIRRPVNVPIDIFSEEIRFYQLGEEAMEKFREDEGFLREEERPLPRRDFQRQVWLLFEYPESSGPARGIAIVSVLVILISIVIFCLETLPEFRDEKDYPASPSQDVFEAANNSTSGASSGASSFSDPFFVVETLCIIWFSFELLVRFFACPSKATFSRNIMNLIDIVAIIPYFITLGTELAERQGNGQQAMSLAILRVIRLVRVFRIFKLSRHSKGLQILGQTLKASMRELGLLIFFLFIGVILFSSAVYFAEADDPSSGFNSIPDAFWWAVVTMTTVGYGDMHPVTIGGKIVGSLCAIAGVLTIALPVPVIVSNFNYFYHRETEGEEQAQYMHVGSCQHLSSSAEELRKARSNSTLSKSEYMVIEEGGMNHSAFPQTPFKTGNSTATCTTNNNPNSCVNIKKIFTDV
The target in series [4] is human Kv1.6 potassium ion channel (human) (UniProt P17658). The experiment in a line: cell-based or functional assay.
Sequence of human Kv1.6 potassium ion channel (human) (P17658 whole entry): as the sequence (P17658 whole entry) above
The target of series [5] is human Kv1.1 potassium ion channel (human) (UniProt Q09470). The experiment in a line: cell-based or functional assay.
Sequence of human Kv1.1 potassium ion channel (human) (Q09470 whole entry): as the sequence (Q09470 whole entry) above
Series [6] deals with human Kv1.3 (potassium voltage-gated channel subfamily A member 3) (human) (UniProt P22001). The experiment in a line: cell-based or functional assay.
Sequence of human Kv1.3 (potassium voltage-gated channel subfamily A member 3) (human) (P22001 whole entry): as the sequence (P22001 whole entry) above
Series [7] concerns the target human Kv1.2 potassium ion channel (human) (UniProt P16389). Description: cell-based or functional assay.
The target in series [8] is human Kv1.3 voltage-gated K+ channel (potassium voltage-gated channel subfamily A member 3) (human) (UniProt P22001). Description: cell-based or functional assay.
Sequence of human Kv1.3 voltage-gated K+ channel (potassium voltage-gated channel subfamily A member 3) (human) (P22001 whole entry): as above

Where a SMILES comes first, the peptide text is derived from it. Bridges are numbered along the chain shown (N, C = ends). [ ]: non-standard residue; d: D form. Nle = CCCC[C@H](N)C(=O)O; Dab = NCC[C@H](N)C(=O)O

T1 sequence (P16389 whole entry): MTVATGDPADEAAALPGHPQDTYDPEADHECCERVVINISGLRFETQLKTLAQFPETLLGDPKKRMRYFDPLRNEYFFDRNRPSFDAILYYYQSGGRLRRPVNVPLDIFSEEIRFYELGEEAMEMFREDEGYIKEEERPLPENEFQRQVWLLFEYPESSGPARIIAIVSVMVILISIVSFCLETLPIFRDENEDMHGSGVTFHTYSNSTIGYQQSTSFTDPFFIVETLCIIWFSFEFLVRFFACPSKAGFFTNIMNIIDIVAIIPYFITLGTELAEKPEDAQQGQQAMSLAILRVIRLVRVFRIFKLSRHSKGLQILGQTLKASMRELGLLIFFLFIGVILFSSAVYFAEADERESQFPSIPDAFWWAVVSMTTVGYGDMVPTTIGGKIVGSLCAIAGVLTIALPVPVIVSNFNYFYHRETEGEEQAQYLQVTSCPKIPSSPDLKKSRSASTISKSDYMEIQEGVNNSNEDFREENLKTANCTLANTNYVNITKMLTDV
Sequence of human Kv1.2 potassium ion channel (human) (P16389 whole entry): as above
T5 sequence (P22001 whole entry): as the sequence (P22001 whole entry) above

The IC50 is the concentration that gives 50% inhibition. Usually AUC(0-inf) stands for total exposure, with the tail of the curve extrapolated. Higher therefore signals more exposure. What is called Cmax is the highest concentration seen after dosing. The term half-life denotes the time in which the quantity being followed falls by half. Take `CCCC[C@H](NC(=O)[C@@H]1CCCN1)C(=O)N[C@@H](CCC(=O)O)C(=O)N[C@@H](CCCC)C(=O)N[C@@H](CCCNC(=N)N)C(=O)N[C@H]1CSSC[C@@H]2NC(=O)[C@H](CCCCN)NC(=O)CNC(=O)[C@H](Cc3ccccc3)NC(=O)[C@H]([C@@H](C)CC)NC(=O)[C@H](CO)NC(=O)CNC(=O)[C@H]([C@@H](C)CC)NC(=O)[C@H](C)NC(=O)[C@H](C)NC(=O)[C@H](CC(C)C)NC(=O)[C@@H]3CSSC[C@@H](C(=O)N[C@@H](Cc4ccc(O)cc4)C(=O)N4CCC[C@H]4C(=O)N[C@@H](CCCNC(=N)N)C(=O)O)NC(=O)[C@H](CCCCN)NC(=O)[C@H](CSSC[C@H](NC(=O)[C@H](CCC(=O)O)NC(=O)[C@H](C(C)C)NC(=O)[C@H](CO)NC(=O)[C@H](C)NC(=O)[C@H](CCN)NC1=O)C(=O)N[C@@H](CCCCN)C(=O)N[C@@H](CCC(N)=O)C(=O)N[C@@H](CCCCN)C(=O)N3)NC(=O)[C@H](CCCCN)NC(=O)[C@H](CCCCN)NC(=O)[C@H](CC(N)=O)NC(=O)[C@H](CCCC)NC2=O` [Cpd No. 1] (H-P[Nle]E[Nle]RC[Dab]ASVECKQKCLAAIGSIFGKC[Nle]NKKCKCYPR-OH; disulfide 6-27, 12-32, 16-34): the IC50 was 480 nM at human Kv1.2 (CHO cells, QPatch whole-cell, read-out: Potency IC50 Kv1.2); 0.12 nM in [1]; over 3000 nM on human Kv1.6 (CHO cells, QPatch whole-cell, read-out: Potency IC50 Kv1.6); over 3000 nM on human Kv1.1 (CHO cells, QPatch whole-cell, read-out: Potency IC50 Kv1.1); 0.028 nM on human Kv1.3. In addition, on human Kv1.2, the “Selectivity ratio Kv1.2/Kv1.3” value was 17000. In addition, the area under the curve AUC(0-inf) in [2] came out at 0.152 µM·h. This compound also came in with a maximum concentration (Cmax) in [2] of 90.8 nM. Also, the half-life in series [2] was 1.7 h. In addition, the “Selectivity ratio Kv1.6/Kv1.3” value on human Kv1.6 was over 100000. The “Selectivity ratio Kv1.1/Kv1.3” value at human Kv1.1 is over 100000.

With `CCCC[C@H](NC(=O)[C@@H]1CCCN1)C(=O)N[C@@H](CCC(=O)O)C(=O)N[C@@H](CCCC)C(=O)N[C@@H](CCCNC(=N)N)C(=O)N[C@H]1CSSC[C@@H]2NC(=O)[C@H](CCCCN)NC(=O)CNC(=O)[C@H](Cc3ccccc3)NC(=O)[C@H]([C@@H](C)CC)NC(=O)[C@H](CO)NC(=O)CNC(=O)[C@H]([C@@H](C)CC)NC(=O)[C@H](C)NC(=O)[C@H](C)NC(=O)[C@H](CC(C)C)NC(=O)[C@@H]3CSSC[C@@H](C(=O)N[C@@H](Cc4ccc(O)cc4)C(=O)N4CCC[C@H]4C(=O)N[C@@H](CCCNC(=N)N)C(N)=O)NC(=O)[C@H](CCCCN)NC(=O)[C@H](CSSC[C@H](NC(=O)[C@H](CCC(=O)O)NC(=O)[C@H](C(C)C)NC(=O)[C@H](CO)NC(=O)[C@H](C)NC(=O)[C@H](CO)NC1=O)C(=O)N[C@@H](CCCCN)C(=O)N[C@@H](CCC(N)=O)C(=O)N[C@@H](CCCCN)C(=O)N3)NC(=O)[C@H](CCCCN)NC(=O)[C@H](CCCCN)NC(=O)[C@H](CC(N)=O)NC(=O)[C@H](CCCC)NC2=O` [compound 13] (H-P[Nle]E[Nle]RCSASVECKQKCLAAIGSIFGKC[Nle]NKKCKCYPR-NH2; disulfide 6-27, 12-32, 16-34), the “Selectivity ratio Kv1.2/Kv1.3” value on human Kv1.2 is 1689. In series [3], this compound gave a total exposure AUC(0-inf) of 0.0268 µM·h, a Cmax of 16.5 nM and a half-life of 1.7 h. Further, the “Selectivity ratio Kv1.6/Kv1.3” value at human Kv1.6 is listed as over 16200. For the same compound, the “Selectivity ratio Kv1.1/Kv1.3” value at human Kv1.1 is listed as over 16200. On Rat whole blood, this compound yielded an IC50 of 0.34 nM.

Take Moka1 (peptide): in series [4], the Potency IC50 (nM) Kv1.6 was over 3000 nM and the Selectivity Kv1.6/Kv1.3 was over 300. In [5], this compound came in with a Potency IC50 (nM) Kv1.1 of over 3000 nM and a Selectivity Kv1.1/Kv1.3 of over 300. Further, in series [6], the Potency IC50 (nM) Kv1.3 worked out at 9 nM. In series [7], this compound showed a Potency IC50 (nM) Kv1.2 of 275 nM and a Selectivity Kv1.2/Kv1.3 of 31.

Take ShK (peptide): in series [4], the Potency IC50 (nM) Kv1.6 came out at 0.19 nM. In addition, in [6], the Potency IC50 (nM) Kv1.3 was 0.017 nM. The compound further came in with a Potency IC50 (nM) Kv1.2 in [7] of 11 nM.

In [8], “ShK-186: H-[phosphotyrosyl][8-Amino-3,6-dioxaoctanoyl]…-NH2 (peptide)” had an IC50 of IL-2 release, anti-CD3 stimulated human PBMCs (Example 5b) of 0.05 nM.

For Vm24 (peptide), in [4], the Potency IC50 (nM) Kv1.6 came to 21 nM and the Selectivity Kv1.6/Kv1.3 is 139. Also, in series [5], the Potency IC50 (nM) Kv1.1 was determined as 0.097 nM and the Selectivity Kv1.1/Kv1.3 amounted to 0.65. Moreover, the Potency IC50 (nM) Kv1.3 in series [6] worked out at 0.15 nM. In series [7], the Potency IC50 (nM) Kv1.2 came out at 4.7 nM and the Selectivity Kv1.2/Kv1.3 came to 31.
